Results on one molecule are retold here after patent US9072717B2, “Cosmetic compositions containing alpha glucosidase inhibitors and methods of use” (ELC Management LLC, priority 2007, dated 2015).

The target of the experiment is T1, α-glucosidase—Saccharomyces cerevisiae recombinant (Saccharomyces cerevisiae, UniProt P53341).
T1 construct: purchased Sigma G0660
The experiment in a line: alpha glucosidase inhibitory activity assay (release of p-nitrophenol from p-nitrophenyl-α-D-glucoside). Type of experiment: biochemical. The following applies: end concentration in the well 0.8 mM; 'should cause about 50% inhibition'. How it is done: [drawing 1] wherein the α-glucosidase activity is measured by the release of p-nitrophenol, and as further set forth in Example 1.
Materials were tested for alpha glucosidase inhibitory activity as follows:
Materials: Standard laboratory equipment, 96 well half area plates with UV transparent bottom (Costar, 3679), 8 channel multi pipette (20 to 200 μl), and spectrophotometer, Spectra Max Plus (Molecular Devices).
Reagents: • (a) Distilled water • (b) Potassium dihydrogen phosphate • (c) Dimethylsulfoxide (Acros, 12779) • (d) α-glucosidase—Saccharomyces cerevisiae recombinant (min. 125 U/mg protein) (Sigma, G0660) • (e) p-nitrophenol-α-D-glucopyranoside (Sigma, N1377) • (f) Australine hydrochloride, castanospermum australe (Calbiochem, #189422) (reference inhibitor)
60 μl of reference inhibitor is needed per well)
Stock solution of the test sample is prepared using 142 mM potassium phosphate buffer (solubility of test sample can be improved using DMSO/potassium phosphate mixtures. The end concentration of DMSO should not exceed 1% v/v which corresponds to 1.66% DMSO in the sample stock solution. […]
Pipette with 8 channel multi-pipette 20 μl of the enzyme and mix well. […] The absorbance was measured at […].
For each concentration of potential inhibitor, the initial reaction velocity is calculated, being the initial slope of the absorbance vs. time data. […]

T1 sequence (P53341 whole entry): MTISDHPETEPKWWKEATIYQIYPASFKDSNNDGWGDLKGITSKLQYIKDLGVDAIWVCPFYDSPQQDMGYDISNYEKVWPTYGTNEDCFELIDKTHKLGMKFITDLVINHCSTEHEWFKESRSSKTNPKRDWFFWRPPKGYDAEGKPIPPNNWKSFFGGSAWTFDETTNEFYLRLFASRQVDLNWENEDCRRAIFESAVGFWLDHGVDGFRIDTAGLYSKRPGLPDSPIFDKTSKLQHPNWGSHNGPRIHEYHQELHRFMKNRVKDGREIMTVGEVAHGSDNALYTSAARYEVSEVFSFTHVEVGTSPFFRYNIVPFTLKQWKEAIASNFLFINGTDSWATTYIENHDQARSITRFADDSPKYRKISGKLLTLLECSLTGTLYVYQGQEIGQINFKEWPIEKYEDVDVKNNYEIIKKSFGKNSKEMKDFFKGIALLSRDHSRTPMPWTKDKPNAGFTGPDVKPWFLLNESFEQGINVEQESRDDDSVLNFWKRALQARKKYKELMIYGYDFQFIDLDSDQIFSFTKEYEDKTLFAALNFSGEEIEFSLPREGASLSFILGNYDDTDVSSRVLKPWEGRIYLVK

For `Cl.OC[C@@H]1[C@@H](O)[C@H](O)[C@H]2[C@@H](O)CCN21` [Australine HCl, Australine hydrochloride], the “inhibition in the well (reference inhibitor)” value was “about 50%”.
